Results from patent publication US20240083857A1, “2-Methyl-Quinazolines” (Bayer Pharma Aktiengesellschaft, priority 2017, published 2024).

Columns and labels:
[1] = molecular target: Epidermal Growth Factor Receptor (EGFR) (Homo sapiens (Human), UniProt P00533); assay: EGFR kinase assay (TR-FRET); format: biochemical; conditions: E-notation values; unit inferred; read-out: EGFR-assay IC50
Procedure, shortened: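 Read-out is the 665/620 nm HTRF ratio, from a Tb-cryptate anti-phosphotyrosine antibody and streptavidin-XL665 bound to phosphorylated biotin-peptide substrate. The enzyme, A431-derived EGFR (~3 U/ml), was given 15 min compound pre-binding at 22° C in Hepes pH 7.0 with Mg2+/Mn2+ before reaction.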

[2] = molecular target: human SOS1 (loading of human K-Ras^G12C-GDP with fluorescent GTP-analog) (Homo sapiens, UniProt Q07889); assay: Biochemical assay 3: K-Ras^G12C activation assay by hSOS1 (HTRF); conditions: E-notation values; unit inferred; read-out: Assay 3 (KRAS-Activation) IC50

Epidermal Growth Factor Receptor (EGFR), sequence (P00533 25-1210): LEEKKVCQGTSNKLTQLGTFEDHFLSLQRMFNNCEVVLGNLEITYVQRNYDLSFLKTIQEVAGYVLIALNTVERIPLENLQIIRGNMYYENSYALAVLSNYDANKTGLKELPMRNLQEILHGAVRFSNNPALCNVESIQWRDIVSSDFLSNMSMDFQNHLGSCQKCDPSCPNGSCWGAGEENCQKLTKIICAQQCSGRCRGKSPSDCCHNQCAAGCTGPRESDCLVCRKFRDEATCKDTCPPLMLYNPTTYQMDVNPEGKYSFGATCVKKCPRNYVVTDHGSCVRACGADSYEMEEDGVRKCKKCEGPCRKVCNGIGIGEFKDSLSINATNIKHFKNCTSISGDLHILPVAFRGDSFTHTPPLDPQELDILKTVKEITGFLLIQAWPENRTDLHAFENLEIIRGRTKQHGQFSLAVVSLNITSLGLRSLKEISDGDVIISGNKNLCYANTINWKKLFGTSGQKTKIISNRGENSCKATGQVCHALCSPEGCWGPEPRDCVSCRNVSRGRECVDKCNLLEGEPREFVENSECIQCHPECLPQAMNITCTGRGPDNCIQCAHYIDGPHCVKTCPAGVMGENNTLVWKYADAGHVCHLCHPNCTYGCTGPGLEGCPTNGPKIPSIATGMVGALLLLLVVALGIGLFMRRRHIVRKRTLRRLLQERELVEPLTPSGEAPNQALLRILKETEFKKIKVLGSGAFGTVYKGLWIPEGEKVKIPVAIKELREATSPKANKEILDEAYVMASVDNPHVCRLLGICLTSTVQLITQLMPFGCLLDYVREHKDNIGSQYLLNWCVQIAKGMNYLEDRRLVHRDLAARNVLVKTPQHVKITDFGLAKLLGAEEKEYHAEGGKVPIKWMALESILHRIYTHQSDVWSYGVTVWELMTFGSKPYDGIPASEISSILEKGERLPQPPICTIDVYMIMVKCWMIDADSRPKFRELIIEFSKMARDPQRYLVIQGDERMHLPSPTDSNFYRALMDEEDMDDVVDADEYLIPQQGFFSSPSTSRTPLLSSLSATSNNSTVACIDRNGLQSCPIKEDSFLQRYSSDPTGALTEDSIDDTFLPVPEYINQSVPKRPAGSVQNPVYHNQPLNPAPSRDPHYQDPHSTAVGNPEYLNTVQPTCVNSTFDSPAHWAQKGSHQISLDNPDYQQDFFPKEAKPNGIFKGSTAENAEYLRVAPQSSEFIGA

COC(=O)C(C)(C)c1ccccc1-c1ccc(C(C)Nc2nc(C)nc3cc(OC)c(OC)cc23)s1 (stereo not drawn) [Example 436, methyl 2-[2-(5-{1-[(6,7-dimethoxy-2-methylquinazolin-4-yl)amino]ethyl}thiophen-2-yl)phenyl]-2-methylpropanoate]
IC50 [1]: > 20000 nM
IC50 [2]: 1770 nM

COc1cc2nc(C)nc(NC(C)c3sc(-c4ccccc4CN)cc3Cl)c2cc1OC (stereo not drawn) [Example 437, N-[1-{5-[2-(aminomethyl)phenyl]-3-chlorothiophen-2-yl}ethyl]-6,7-dimethoxy-2-methylquinazolin-4-amine]
IC50 [1]: > 20000 nM
IC50 [2]: 160 nM

Cc1nc(NC(C)c2ccc(-c3ccccc3CN(C)C)s2)c2cc(NS(C)(=O)=O)ccc2n1 (stereo not drawn) [Example 438, N-(4-{[1-(5-{2-[(dimethylamino)methyl]phenyl}thiophen-2-yl)ethyl]amino}-2-methylquinazolin-6-yl)methanesulfonamide]
IC50 [1]: > 20000 nM
IC50 [2]: 116 nM

COc1ccc(-c2ccc(C(C)Nc3nc(C)nc4cc(OC)c(OC)cc34)s2)c(CN(C)C)c1 (stereo not drawn) [Example 439, N-[1-(5-{2-[(dimethylamino)methyl]-4-methoxyphenyl}thiophen-2-yl)ethyl]-6,7-dimethoxy-2-methylquinazolin-4-amine]
IC50 [1]: > 20000 nM
IC50 [2]: 229 nM

Cc1nc(NC(C)c2ccc(-c3ccccc3CN(C)C)s2)c2cc(NC(=O)N(C)C)ccc2n1 (stereo not drawn) [Example 440, 3-(4-{[1-(5-{2-[(dimethylamino)methyl]phenyl}thiophen-2-yl)ethyl]amino}-2-methylquinazolin-6-yl)-1,1-dimethylurea]
IC50 [1]: > 20000 nM
IC50 [2]: 921 nM

Cc1nc(NC(C)c2ccc(Br)s2)c2cc(N3CCN(Cc4ccccc4)C(=O)C3)ccc2n1 (stereo not drawn) [Example 441, 1-benzyl-4-(4-{[1-(5-bromothiophen-2-yl)ethyl]amino}-2-methylquinazolin-6-yl)piperazin-2-one]
IC50 [1]: > 20000 nM
IC50 [2]: 15100 nM

COc1cc2nc(C)nc(NC(C)c3ccc(-c4ccc(C)cc4CN(C)C)s3)c2cc1OC (stereo not drawn) [Example 442, N-[1-(5-{2-[(dimethylamino)methyl]-4-methylphenyl}thiophen-2-yl)ethyl]-6,7-dimethoxy-2-methylquinazolin-4-amine]
IC50 [1]: > 20000 nM
IC50 [2]: 45.1 nM

COc1cc2nc(C)nc(NC(C)c3ccc(-c4ccc(C5CC5)cc4CN(C)C)s3)c2cc1OC (stereo not drawn) [Example 443, N-[1-(5-{4-cyclopropyl-2-[(dimethylamino)methyl]phenyl}thiophen-2-yl)ethyl]-6,7-dimethoxy-2-methylquinazolin-4-amine]
IC50 [1]: > 20000 nM
IC50 [2]: 69 nM

COc1cc2nc(C)nc(NC(C)c3ccc(-c4ccccc4C(C)(C)N)s3)c2cc1OC (stereo not drawn) [Example 455, N-[1-{5-[2-(2-aminopropan-2-yl)phenyl]thiophen-2-yl}ethyl]-6,7-dimethoxy-2-methylquinazolin-4-amine]
IC50 [1]: > 20000 nM
IC50 [2]: 769 nM

COc1cc2nc(C)nc(NC(C)c3ccc(-c4ccccc4CN(C)CC#N)s3)c2cc1OC (stereo not drawn) [Example 456, {[2-(5-{1-[(6,7-dimethoxy-2-methylquinazolin-4-yl)amino]ethyl}thiophen-2-yl)benzyl](methyl)amino}acetonitrile]
IC50 [1]: > 20000 nM
IC50 [2]: 287 nM

CNC(=O)Nc1ccc2nc(C)nc(NC(C)c3ccc(-c4ccccc4CN(C)C)s3)c2c1 (stereo not drawn) [Example 457, 1-(4-{[1-(5-{2-[(dimethylamino)methyl]phenyl}thiophen-2-yl)ethyl]amino}-2-methylquinazolin-6-yl)-3-methylurea]
IC50 [1]: > 20000 nM
IC50 [2]: 638 nM

Cc1nc(NC(C)c2ccc(-c3ccccc3CN(C)C)s2)c2cc(N3CCN(Cc4ccccc4)C(=O)C3)ccc2n1 (stereo not drawn) [Example 458, 1-benzyl-4-(4-{[1-(5-{2-[(dimethylamino)methyl]phenyl}thiophen-2-yl)ethyl]amino}-2-methylquinazolin-6-yl)piperazin-2-one]
IC50 [1]: > 20000 nM
IC50 [2]: 45.5 nM
